{
  "source": "patent US5041581A",
  "about": "(priority 1986, dated 1991)",
  "key": {"[1]": {"test_system": "L1210 cells", "assay": "In vitro growth inhibition of L1210 leukemic cells (96 hours, Coulter Counter)", "type": "cell-based, murine", "conditions": "footnote of Table 5; 5760 min", "procedure": "Four ml of cell suspension were added to culture tubes and the appropriate concentration of free PT or L-PT was added (from 0.01 micro g/ml to 10 micro g/ml final concentration). After 96 hours, the cell concentration of control and experimental cultures were calculated with a Coulter Counter (Coulter Electronics, Hialeah, FLA) and the percent inhibition calculated. The following preparations were tested: free PT, DMPG, DMPC:DMPG 7:3, DMPG-PT and DMPC:DMPG 7:3-PT."}, "[2]": {"test_system": "L1210 mouse leukemia", "assay": "In vivo antitumor activity against L1210 mouse leukemia (L1210-BDF1 mouse model)", "design": "species or system BDF1 mice", "procedure": "BDF1 mice were purchased from Charles River (Wilmington, MA). Groups of 6-8 mice weighing 18-22 gm were inoculated ip with 1×10^6 L1210 leukemia cells on day 0. L1210 cells were kept in DBA2 mice were weekly passages between the different experiments. All L-PT preparations were injected ip in volumes of 0.1 to 0.3 ml 24 hours after tumor inoculation. Two different schedules of administration were used: a single injection on day 1 or an injection on days 1, 5 and 9 (multiple). […] Clinical behavior and survival times were monitored until all animals had died. Results were expressed as % T/C (median survival time of treated mice/median survival time of control mice ×100) and number of long-term survivors. Mice living more than 30 days and more than 60 days were considered to be long-term survivors for the single and multiple injection schedule respectively. All L-PT preparations tested for antitumor activity were prepared under sterile conditions on the same day of the experiment.\nThe antitumor activity against L-1210 murine leukemia of the different L-PT analogs was assessed in an L-1210-BDF, mouse model (tumor inoculation day 0, treatment day 1, ip) as described earlier herein.\nThese liposome-encapsulated compounds were tested to determine their optimal dose and effectiveness as inhibitors of in vivo tumor growth as described in Example 12."}, "[3]": {"test_system": "liver metastases of M5076 reticulosarcoma", "assay": "Treatment of established liver metastases of mouse M5076 reticulosarcoma", "type": "in vivo, mouse (C57BL/6)", "conditions": "for No. Liver Metastases, mean ± SD: day 30, 7.5 mg/kg days 8, 12, 16, 10^5 cells iv, 7.5 mg/kg", "procedure": "Animals were treated on days 8, 12, and 16 with\nTreated animals were sacrificed on day 30,\nAnimals were treated on days 4, 8, and 12 with\nTreated animals were sacrificed on day 45,"}, "[4]": {"test_system": "liver metastases of M5076 reticulosarcoma", "assay": "Prophylaxis of liver metastases of mouse M5076 reticulosarcoma", "type": "in vivo, mouse (C57BL/6)", "conditions": "day 21, 10 mg/kg day -1, 10^4 cells iv", "description": "NeodecanoatoRacemic-DACH. Animals were inoculated on day 0 with 10^4\nM5076 cells intravenously.\nTreated animals were sacrificed on day 21, the livers dissected,\nplaced in Bouin's fixative, and the number of tumor colonies counted."}, "[5]": {"conditions": "MLV, 48 hours in 0.9% NaCl solution; cited from earlier work"}},
  "data": [
    {"smiles": "N.N.[Cl][Pt][Cl]", "note": "[CDDP, Cis-platinum, reference compound]", "values": [
      {"measurement": "CDDP ID50", "setting": "[1]", "result": 0.1, "unit": "micro g/ml"},
      {"measurement": "% T/C", "setting": "[2]; 7.5 mg/kg × 3 ip, days 1, 5 and 9", "result": 253, "unit": "%"},
      {"measurement": "% T/C", "setting": "[2]; 10 mg/kg ip day 1, Exp. 1", "result": 167, "unit": "%"},
      {"measurement": "% T/C", "setting": "[2]; 10 mg/kg ip day 1, Exp. 3", "result": 189, "unit": "%"},
      {"measurement": "Number of Survivors on Day 30", "setting": "[2]; 10 mg/kg ip day 1, Exp. 3", "result": "1/6"},
      {"measurement": "% T/C", "setting": "[2]; 10 mg/kg ip day 1, dissolved in saline (Table 8)", "result": 175, "unit": "%"},
      {"measurement": "% T/C, mean", "setting": "[2]; 10 mg/kg, single ip dose, means of three experiments", "result": 178, "unit": "%"},
      {"measurement": "Long-term survivors", "setting": "[2]; single ip dose, more than 30 days", "result": "one or two mice of six"},
      {"measurement": "No. Liver Metastases, mean ± SD", "setting": "[3]; listed as Cis-platinum", "result": "114 ± 38"},
      {"measurement": "No. Liver Metastases, mean ± SD", "setting": "[3]; listed as cis-platinum", "result": "114 ±38"},
      {"measurement": "animals with 175 or more liver metastases", "setting": "[3]; day 45, 7.5 mg/kg days 4, 8, 12", "result": "4/6"},
      {"measurement": "animals that died before day 45", "setting": "[3]; groups of 6, days 4, 8, and 12", "result": "Two"},
      {"measurement": "No. Liver Metastases, mean ± SD", "setting": "[4]; listed as Cis-platinum", "result": "256 ± 54"},
      {"measurement": "No. Liver Metastases, mean ± SD", "setting": "[4]; listed as cis-platinum", "result": "256 ±54"},
      {"measurement": "stability", "setting": "[5]", "result": 75, "unit": "%"}
    ]}
  ]
}
